The values below are quoted from earlier work in US10610500B2, “Chemosensory receptor ligand-based therapies” (Anji Pharma (US) LLC, priority 2011, dated 2020).

One data set concerns the target T1, sweet receptor (Homo sapiens, UniProt Q7RTX0+Q8TE23).
T1 sequence (Q8TE23 20-839): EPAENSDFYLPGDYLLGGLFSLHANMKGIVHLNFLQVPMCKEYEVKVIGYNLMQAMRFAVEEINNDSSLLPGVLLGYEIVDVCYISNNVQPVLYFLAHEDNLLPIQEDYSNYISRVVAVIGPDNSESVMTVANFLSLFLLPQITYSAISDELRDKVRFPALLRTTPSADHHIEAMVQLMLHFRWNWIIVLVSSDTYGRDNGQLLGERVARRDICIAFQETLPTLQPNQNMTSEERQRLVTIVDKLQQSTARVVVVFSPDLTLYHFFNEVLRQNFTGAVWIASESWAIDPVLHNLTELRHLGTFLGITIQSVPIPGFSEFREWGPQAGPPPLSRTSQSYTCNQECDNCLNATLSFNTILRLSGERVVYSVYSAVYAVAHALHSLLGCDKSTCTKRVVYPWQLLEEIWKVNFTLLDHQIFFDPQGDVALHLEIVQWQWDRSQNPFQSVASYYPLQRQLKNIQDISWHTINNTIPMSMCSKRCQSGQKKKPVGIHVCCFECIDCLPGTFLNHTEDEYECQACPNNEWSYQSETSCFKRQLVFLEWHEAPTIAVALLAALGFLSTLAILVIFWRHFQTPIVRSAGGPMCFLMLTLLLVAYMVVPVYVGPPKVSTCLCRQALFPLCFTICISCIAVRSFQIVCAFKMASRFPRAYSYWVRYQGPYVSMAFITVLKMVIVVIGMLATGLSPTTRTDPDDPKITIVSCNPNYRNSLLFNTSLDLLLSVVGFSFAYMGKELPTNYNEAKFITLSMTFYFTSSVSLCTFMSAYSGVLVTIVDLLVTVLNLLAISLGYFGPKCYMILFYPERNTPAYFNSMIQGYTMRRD
T1 sequence (Q7RTX0 21-852): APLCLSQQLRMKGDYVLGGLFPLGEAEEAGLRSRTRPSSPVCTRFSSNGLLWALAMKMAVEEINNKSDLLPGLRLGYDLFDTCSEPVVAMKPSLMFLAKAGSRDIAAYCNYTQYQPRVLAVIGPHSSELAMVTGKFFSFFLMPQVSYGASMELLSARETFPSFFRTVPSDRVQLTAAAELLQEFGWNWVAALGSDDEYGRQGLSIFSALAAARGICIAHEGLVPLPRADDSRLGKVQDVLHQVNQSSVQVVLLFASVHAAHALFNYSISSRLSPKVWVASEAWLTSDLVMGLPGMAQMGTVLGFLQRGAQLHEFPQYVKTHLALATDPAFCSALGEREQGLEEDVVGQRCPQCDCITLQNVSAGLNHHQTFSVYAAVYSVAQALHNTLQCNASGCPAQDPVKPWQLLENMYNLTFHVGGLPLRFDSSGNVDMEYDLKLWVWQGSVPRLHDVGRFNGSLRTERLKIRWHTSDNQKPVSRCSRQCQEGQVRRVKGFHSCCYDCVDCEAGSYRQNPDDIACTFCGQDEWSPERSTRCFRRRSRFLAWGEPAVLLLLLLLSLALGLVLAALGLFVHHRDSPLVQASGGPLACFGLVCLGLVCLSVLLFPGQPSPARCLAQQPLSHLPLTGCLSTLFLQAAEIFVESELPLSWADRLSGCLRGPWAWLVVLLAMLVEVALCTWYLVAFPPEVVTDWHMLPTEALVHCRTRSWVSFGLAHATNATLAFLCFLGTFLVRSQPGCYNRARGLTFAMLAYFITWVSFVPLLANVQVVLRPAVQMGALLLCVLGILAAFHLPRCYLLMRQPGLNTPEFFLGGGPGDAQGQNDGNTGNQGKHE
The following applies: relative sweetness on a weight comparison basis to sucrose (=1.0); ranges: relative sweetness varied with the concentration of sucrose.
On to `C=C1C[C@@]23CC[C@H]4[C@@](C)(CCC[C@@]4(C)C(=O)O)[C@@H]2CC[C@]1(O[C@@H]1O[C@H](CO)[C@@H](O)[C@H](O)[C@H]1O[C@@H]1O[C@H](CO)[C@@H](O)[C@H](O)[C@H]1O)C3` [Steviolbioside], for which the Sweetness/potency is 90.
With `C=C1C[C@@]23CC[C@H]4[C@@](C)(CCC[C@@]4(C)C(=O)O[C@@H]4O[C@H](CO)[C@@H](O)[C@H](O)[C@H]4O)[C@@H]2CC[C@]1(O[C@@H]1O[C@H](CO)[C@@H](O)[C@H](O)[C@H]1O[C@@H]1O[C@H](CO)[C@@H](O)[C@H](O)[C@H]1O)C3` [Stevioside], the Sweetness/potency was 210.
On to `CC[C@@H](C)C(=O)O[C@@H](C)[C@]1(O)CC[C@]2(O)[C@@H]3CC[C@H]4C[C@@H](O[C@@H]5C[C@H](O)[C@H](O[C@H]6C[C@H](OC)[C@H](O[C@H]7C[C@@H](OC)[C@H](O[C@H]8C[C@@H](OC)[C@H](O[C@@H]9O[C@H](C)[C@@H](O[C@@H]%10O[C@H](CO)[C@@H](O)[C@H](O)[C@H]%10O)[C@H](OC)[C@H]9O)[C@@H](C)O8)[C@@H](C)O7)[C@@H](C)O6)[C@@H](C)O5)CC[C@]4(C)[C@H]3C[C@@H](OC(C)=O)[C@]12C` [Telosmoside A15], for which the Sweetness/potency is reported as 1000.
As to `O=C/C=C/c1ccccc1` [Trans-Cinnamaldehyde], the Sweetness/potency was 50.
Turning to `C/C=C/c1ccc(OC)cc1` [trans-Anethole], the Sweetness/potency is recorded as 13.
Regarding Albiziasaponin B, the Sweetness/potency is given as 600.
With Baiyunoside, the Sweetness/potency is 500.
Regarding “Brazzein: sweet protein of Pentadiplandra brazzeana Baillon (QDKCKKVYENYPVSKCQLANQCNYDCKLDKHARSGECFYDEKRNLQCICDYCEY; UniProt P56552 1-54, looked up)”, the Sweetness/potency is 2,000.
As for Carnosifloside V, the Sweetness/potency is given as 51.
For the molecule Curculin, the Sweetness/potency is recorded as 550.
In the case of Cyclocarioside A, the Sweetness/potency was 200.
Take Cyclocaryoside I: the Sweetness/potency was 250.
Consider Monellin, for which the Sweetness/potency was 3,000.
Turning to Pentadin, the Sweetness/potency is recorded as 500.
For the molecule Periandrin II, the Sweetness/potency is on record as 95.
Periandrin IV: the Sweetness/potency is on record as 85.
Take Polypodoside A: the Sweetness/potency is reported as 600.
Consider Pterocaryoside A, for which the Sweetness/potency was 50.
As for Rebaudioside B, the Sweetness/potency is given as 150.
Regarding Rebaudioside C, the Sweetness/potency is given as 30.
In the case of Scandenoside R6, the Sweetness/potency was 54.
For Thaumatin, the Sweetness/potency is 1,600.

The next data set concerns L cells located in the gut. The following applies: administration of metformin.
Consider `CN(C)C(=N)N=C(N)N` [metformin], for which the “release of GLP-1 from the L cells” value is “increases”.

The test system of another data set is gut hormones. The following applies: humans.
In the case of `C=C1C[C@@]23CC[C@H]4[C@@](C)(CCC[C@@]4(C)C(=O)O[C@@H]4O[C@H](CO)[C@@H](O)[C@H](O)[C@H]4O)[C@@H]2CC[C@]1(O[C@@H]1O[C@H](CO)[C@@H](O)[C@H](O[C@@H]2O[C@H](CO)[C@@H](O)[C@H](O)[C@H]2O)[C@H]1O[C@@H]1O[C@H](CO)[C@@H](O)[C@H](O)[C@H]1O)C3` [Rebaudioside A], the “gut hormones in the circulation” value is “no alterations”.
